The source made the active and inactive calls. The calls are words filed in the database; no cut-off is given here.

The test system of experiment [1] is Pichia membranifaciens. In words: Antifungal activity against Pichia membranifaciens at 10 mg/ml after 48 hrs by disc diffusion method. Format: functional, organism-based.
Experiment [2] relates to Hepacivirus hominis. The experiment is described as follows: Inhibition of HCV N-terminal His-tagged NS5B RNA dependent RNA polymerase expressed in Escherichia coli DH5alpha using poly rA/U12 as primer at 200 uM after 60 mins by liquid scintillation counting.
The test system of experiment [3] is T47D. The experiment is described as follows: Cytotoxicity against human T47D assessed as cell growth at 10 uM after 48 hrs by SRB assay. Format: functional. The note with it: read-out: Activity. (In general: In SRB staining, fixed cells bind dye roughly in proportion to their protein.)
In experiment [4] the test system is Klebsiella aerogenes. In words: Antibacterial activity against Enterobacter aerogenes at 6.25 to 200 ug/ml after 24 hrs by microwell dilution method. Type of experiment: functional, organism-based.
Experiment [5] relates to Staphylococcus cohnii. The experiment is described as follows: Antibacterial activity against Staphylococcus cohnii at 6.25 to 200 ug/ml after 24 hrs by microwell dilution assay. Type of experiment: functional, organism-based.
Experiment [6] concerns Klebsiella aerogenes. The experiment is described as follows: Antibacterial activity against Enterobacter aerogenes at 10 mg/ml after 24 hrs by disc diffusion method. Type of experiment: functional, organism-based. In general terms: In agar diffusion tests the substance spreads into inoculated agar from a disc or well.
Experiment [7] concerns Micrococcus lylae. In words: Antibacterial activity against Micrococcus lylae at 10 mg/ml after 24 hrs by disc diffusion method. Type of experiment: functional, organism-based.
The subject of experiment [8] is Nakaseomyces glabratus. The experiment is described as follows: Antifungal activity against Candida glabrata at 10 mg/ml after 48 hrs by disc diffusion method. Type of experiment: functional, organism-based.
Experiment [9] relates to Micrococcus lylae. The experiment is described as follows: Antibacterial activity against Micrococcus lylae at 6.25 to 200 ug/ml after 24 hrs by microwell dilution method. Format: functional, organism-based.
Experiment [10] concerns Escherichia coli. In words: Antibacterial activity against Escherichia coli at 6.25 to 200 ug/ml after 24 hrs by microwell dilution method. Type of experiment: functional, organism-based.
The test system of experiment [11] is Photorhabdus luminescens. In words: Antibacterial activity against Photorhabdus luminescens at 10 mg/ml after 24 hrs by disc diffusion method. Format: functional, organism-based.
The test system of experiment [12] is Acinetobacter radioresistens. In words: Antibacterial activity against Acinetobacter radioresistens at 10 mg/ml after 24 hrs by disc diffusion method. Format: functional, organism-based.
For experiment [13], the system named is Staphylococcus aureus. The experiment is described as follows: Antibacterial activity against Staphylococcus aureus at 10 mg/ml after 24 hrs by disc diffusion method. Type of experiment: functional.
For experiment [14], the system named is Pseudomonas aeruginosa. The experiment is described as follows: Antibacterial activity against Pseudomonas aeruginosa at 6.25 to 200 ug/ml after 24 hrs by microwell dilution method. Format: functional, organism-based.
For experiment [15], the system named is Micrococcus luteus. In words: Antibacterial activity against Micrococcus luteus at 10 mg/ml after 24 hrs by disc diffusion method. Format: functional, organism-based.
In experiment [16] the test system is Candida tropicalis. In words: Antifungal activity against Candida tropicalis at 10 mg/ml after 48 hrs by disc diffusion method. Format: functional, organism-based.
The subject of experiment [17] is Salmonella paratyphi. In words: Antibacterial activity against Salmonella paratyphi at 10 mg/ml after 24 hrs by disc diffusion method. Format: functional, organism-based. The note with it: Salmonella enterica subsp. enterica serovar Paratyphi A.
Experiment [18] concerns Staphylococcus aureus. In words: Antibacterial activity against Staphylococcus aureus at 6.25 to 200 ug/ml after 24 hrs by microwell dilution assay. Format: functional, organism-based.
Experiment [19] has as its system Acinetobacter radioresistens. In words: Antibacterial activity against Acinetobacter radioresistens at 6.25 to 200 ug/ml after 24 hrs by microwell dilution method. Type of experiment: functional, organism-based.
In experiment [20] the test system is Candida parapsilosis. The experiment is described as follows: Antifungal activity against Candida parapsilosis at 10 mg/ml after 48 hrs by disc diffusion method. Format: functional, organism-based.
Experiment [21] concerns Pseudomonas aeruginosa. The experiment is described as follows: Antibacterial activity against Pseudomonas aeruginosa at 10 mg/ml after 24 hrs by disc diffusion method. Format: functional, organism-based.
The test system of experiment [22] is Candida albicans. The experiment is described as follows: Antifungal activity against Candida albicans at 10 mg/ml after 48 hrs by disc diffusion method. Type of experiment: functional, organism-based.
In experiment [23] the test system is Salmonella paratyphi. In words: Antibacterial activity against Salmonella paratyphi at 6.25 to 200 ug/ml after 24 hrs by microwell dilution method. Conditions: Salmonella enterica subsp. enterica serovar Paratyphi A. Type of experiment: functional, organism-based.
For experiment [24], the system named is Micrococcus luteus. The experiment is described as follows: Antibacterial activity against Micrococcus luteus at 6.25 to 200 ug/ml after 24 hrs by microwell dilution method. Type of experiment: functional, organism-based.
Experiment [25] concerns Photorhabdus luminescens. The experiment is described as follows: Antibacterial activity against Photorhabdus luminescens at 6.25 to 200 ug/ml after 24 hrs by microwell dilution method. Type of experiment: functional, organism-based.
The test system of experiment [26] is Proteus vulgaris. In words: Antibacterial activity against Proteus vulgaris at 10 mg/ml after 24 hrs by disc diffusion method. Type of experiment: functional, organism-based.
The subject of experiment [27] is Proteus vulgaris. In words: Antibacterial activity against Proteus vulgaris at 6.25 to 200 ug/ml after 24 hrs by microwell dilution method. Format: functional, organism-based.
For experiment [28], the system named is Escherichia coli. In words: Antibacterial activity against Escherichia coli at 10 mg/ml after 24 hrs by disc diffusion method. Format: functional, organism-based.
Experiment [29] deals with SR. The experiment is described as follows: Cytotoxicity against human SR assessed as cell growth at 10 uM after 48 hrs by SRB assay. Format: functional. The note with it: read-out: Activity.
Experiment [30] concerns Schwanniomyces occidentalis. The experiment is described as follows: Antifungal activity against Schwanniomyces occidentalis at 10 mg/ml after 48 hrs by disc diffusion method. Format: functional, organism-based.
Experiment [31] concerns Staphylococcus cohnii. The experiment is described as follows: Antibacterial activity against Staphylococcus cohnii at 10 mg/ml after 24 hrs by disc diffusion method. Format: functional.
For experiment [32], the system named is Aspergillus. In words: Antifungal activity against Aspergillus at 10 mg/ml after 72 hrs by disc diffusion method. Type of experiment: functional, organism-based.
In experiment [33] the test system is Kluyveromyces marxianus. The experiment is described as follows: Antifungal activity against Kluyveromyces marxianus at 10 mg/ml after 48 hrs by disc diffusion method. Format: functional, organism-based.
For experiment [34], the system named is Staphylococcus aureus. In words: Antibacterial activity against Staphylococcus aureus at 200 ug/disc after 24 hrs by disc diffusion method. Format: functional, organism-based.
Experiment [35] has as its system Staphylococcus cohnii. The experiment is described as follows: Antibacterial activity against Staphylococcus cohnii at 200 ug/disc after 24 hrs by disc diffusion method. Type of experiment: functional, organism-based.

The term inhibition denotes the percentage by which the read-out fell short of the control. The low end stands for little suppression, the high end for strong suppression. Take `COc1ccc(/C=N/NC(=O)C(C)c2ccc(-c3ccccc3)c(F)c2)cc1` (stereo not given): the result in experiment [1], in [4], in experiment [5], in experiment [6], in [7] and in [8] was inactive. Besides, the outcome in [9], in experiment [10], in experiment [11], in experiment [12], in experiment [13] and in experiment [14] was inactive. Also, the outcome in [15], in experiment [16], in [17], in experiment [18], in [19] and in [20] was inactive. In addition, the outcome in [21], in experiment [22], in experiment [23], in [24], in [25] and in [26] was inactive. Further, the outcome in [27], in [28], in experiment [30], in [31], in experiment [32] and in experiment [33] was inactive. Also, the inhibition in [2] amounted to 8%. The results for the growth at 10 µM in experiment [3] and in experiment [29] were 57.4% and 46%, respectively.
For the compound `CC1(C)S[C@@H]2[C@H](NC(=O)[C@H](N)c3ccccc3)C(=O)N2[C@H]1C(=O)O`, the result in experiment [34] and in experiment [35] was inactive.

The values above are taken from ChEMBL document CHEMBL3046898, “Synthesis and characterization of flurbiprofen hydrazide derivatives as potential anti-HCV, anticancer and antimicrobial agents” (2013).
